Data published in patent US10166225B2, “Method for treating osteoporosis” (Exelixis, Inc., priority 2011, dated 2019).
Entries after “also recorded” stand apart in the source; their conditions may differ.

Legend:
[1] = test system: rat ovariectomy (OVX) model; experiment: Short-term effects on body weight, uterine weight and bone turnover markers in the rat ovariectomy (OVX) model; type: in vivo, rat (Sprague-Dawley); parameters: key to Body weight, change during the first week / Body weight, change during the in-life phase / Relative uterine weight at day 14 / Serum PINP levels, change during the in-life phase / Serum OC levels, change during the in-life phase / Serum CTX levels, change during the in-life phase / Serum TRACP 5b activity, change during the in-life phase: An upwards arrow (↑) indicates a statistically significant increase; a downwards arrow (↓) a statistically significant decrease; One asterisk (*) indicates a statistical significance with a p-value<0.05; two asterisks (**) with a p-value<0.01; three asterisks (***) with a p-value<0.001; NS=Non-significant; details: for Body weight, change during the first week / Body weight, change during the in-life phase / Relative uterine weight at day 14 / Serum CTX levels, change during the in-life phase / Serum OC levels, change during the in-life phase / Serum PINP levels, change during the in-life phase / Serum TRACP 5b activity, change during the in-life phase: OVX rats vs OVX vehicle
Excerpt: The objective of this study was to investigate short-term effects of Compound 1 on biochemical serum markers of bone metabolism in a prevention study in a rat ovariectomy (OVX) model for postmenopausal osteoporosis. 17β-estradiol (E2) was used as a reference compound. The following five experimental groups were included in the study:
Each group contained eight female rats (Sprague-Dawley) that were three months of age at the beginning of in-life phase of the study. Before the start of the in-life phase, animals were weighed, their blood samples were harvested, and animals were randomized to study groups by stratification according to body weight and serum levels of procollagen type I N-terminal propeptide (PINP). At the beginning of the in-life phase, animals were weighed and operated. Treatment was started one day after the operations and continued once a day for two weeks. Sterile water was used as vehicle in groups 1 and 2. Body weight was determined after one week of treatment and treatment doses were adjusted accordingly. After two weeks of treatment, animals were weighed, their blood samples were harvested, animals were terminated, and their relative uterine weight was determined. For analyzing short-term effects of treatments, levels of four bone metabolism biomarkers were determined in serum samples harvested before the start and at the end of the in-life phase. These biomarkers included PINP as a marker of bone formation, N-terminal mid-fragment of osteocalcin (OC) as a general marker of bone turnover, C terminal cross-linked telopeptides of type I collagen (CTX) as a marker of bone resorption, and tartrate-resistant acid phosphatase isoform 5b (TRACP 5b) as a marker of osteoclast number. Serum levels at day −7 were used as baseline levels and serum levels at day 14 as levels affected by operations and treatments.
Each group contained eight female rats (Sprague-Dawley) that were three months of age at the beginning of in-life phase of the study. Animals were randomized to study groups by stratification according to their body weight and serum levels of procollagen type I N-terminal propeptide (PINP) measured one week before the start of the in-life phase (at day −7). At the beginning of the in-life phase (at day 0), animals were weighed, animals in groups 2-5 were ovariectomized, and animals in group 1 SHAM-operated. Treatment was started one day after the operations and continued once a day for two weeks (up to day 13). Sterile water was used as vehicle in groups 1 and 2. Body weight was determined at the beginning of the in-life phase (at day 0), one week after the start of the inlife phase (at day 7), and at the end of the in-life phase (at day 14). Treatment doses were adjusted according to the latest body weight obtained. After two weeks of treatment (at day 14), animals were weighed, their blood samples were harvested, animals were terminated, and their relative uterine weight was determined. For analyzing short-term effects of treatments, levels of four bone metabolism biomarkers were measured in serum samples harvested before the start of the in-life phase (at day −7) and at the end of the in-life phase (at day 14). These biochemical serum markers included PINP, N-terminal mid-fragment of osteocalcin (OC), C-terminal cross-linked telopeptides of type I collagen (CTX), and tartrate-resistant acid phosphatase isoform 5b (TRACP 5b). Serum levels obtained at day −7 were used as baseline levels and serum levels obtained at day 14 as levels affected by surgical operations and treatments.
Biochemical markers of bone metabolism are useful tools for monitoring osteoporosis therapy and for prediction of fracture risk and long-term changes in bone mineral density (Cremers et al. 2008). […]

[2] = test system: KS483 mouse osteoprogenitor cells; experiment: Osteoblast differentiation assay (cellular ALP activity at day 8); type: cell-based
Protocol: In the third part, KS483 mouse osteoprogenitor cells were cultured for 8 days, after which the formed mature osteoblasts were quantitated by measuring the amount of intracellular alkaline phosphatase (ALP) activity. […] The effects on osteoblasts were studied using KS483 mouse osteoprogenitor cells that can be induced to differentiate into bone-forming osteoblasts. […] In the osteoblast differentiation assay, the cells were cultured for 8 days, after which the formed mature osteoblasts were quantitated by measuring the amount of intracellular alkaline phosphatase (ALP) activity. […] A culture system was established that can be used as an in vitro model for studying the effects of anabolic and estrogen-like compounds on osteoblast differentiation and activity. In this culture system mouse KS483 cells first proliferate and then differentiate into osteoblasts capable of forming mineralized bone nodules in the presence of ascorbic acid and ß-glycerophosphate (Fagerlund et al. 2009). The test and reference compounds are added into the cell cultures concomitantly with the medium change, and their effects on the differentiation and activity of osteoblasts are determined. Cellular ALP, a marker of osteoblast differentiation, is determined from the cell lysates as described earlier (Lowry et al. 1954). Secreted PINP, a marker of organic bone matrix formation, is determined from the culture medium using a commercially available method (Rat/Mouse PINP EIA, IDS Ltd, Boldon, UK). Calcium deposition, an index of inorganic bone matrix formation, is measured using a commercially available calcium assay (Roche Diagnostics). Mouse KS483 cells were cultured in T-75 tissue culture flasks in aMEM supplemented with 10% charcoal-stripped fetal bovine serum until 80-90% confluence. The cells were incubated in a CO2 incubator in humidified atmosphere of 95% air and 5% carbon dioxide at 37° C. After reaching 80-90% confluence, subcultures were prepared. Cells were removed from the flasks with trypsin treatment and counted. For induction of the maturation of osteoblasts and bone formation, the immature osteoblastic cells were plated in type I collagen-coated 96-well plates. The cells were cultured for 8 days with a supplement of ascorbic acid ([…]), and half of the media was changed every 3-4 days. The test compound and control substance (E2) were added in the beginning of the culture period and when the medium was changed. The cultures were stopped at day 8 by removing the culture media from the wells, and cell lysates were prepared. Cellular ALP activity and total protein content (Protein Assay, Bio-Rad Laboratories Inc, CA, USA) were quantitated by using VICTOR2™ Multilabel Counter (PerkinElmer, Waltham, Mass., USA).

[3] = OVX rats, Compound 1 oral dose of 3 mg/kg/d, two weeks
[4] = OVX rats, Compound 1 oral doses of 1 and 3 mg/kg/d, two weeks

COc1cc2nccc(Oc3ccc(NC(=O)C4(C(=O)Nc5ccc(F)cc5)CC4)cc3)c2cc1OC [Compound 1, N-(4-{[6,7-bis(methyloxy)quinolin-4-yl]oxy}phenyl)-N′-(4-fluorophenyl)cyclopropane-1,1-dicarboxamide]
Body weight, change during the first week ([1]; cabozantinib 1 mg/kg/d p.o.): ↓ *
Body weight, change during the in-life phase ([1]; cabozantinib 1 mg/kg/d p.o.): ↓ *
Relative uterine weight at day 14 ([1]; cabozantinib 1 mg/kg/d p.o.): NS
Serum CTX levels, change during the in-life phase ([1]; cabozantinib 1 mg/kg/d p.o.): NS
Serum OC levels, change during the in-life phase ([1]; cabozantinib 1 mg/kg/d p.o.): NS
Serum PINP levels, change during the in-life phase ([1]; cabozantinib 1 mg/kg/d p.o.): NS
Serum TRACP 5b activity, change during the in-life phase ([1]; cabozantinib 1 mg/kg/d p.o.): NS
Body weight, change during the first week ([1]; cabozantinib 3 mg/kg/d p.o.): NS
Body weight, change during the in-life phase ([1]; cabozantinib 3 mg/kg/d p.o.): NS
Relative uterine weight at day 14 ([1]; cabozantinib 3 mg/kg/d p.o.): NS
Serum CTX levels, change during the in-life phase ([1]; cabozantinib 3 mg/kg/d p.o.): NS
Serum OC levels, change during the in-life phase ([1]; cabozantinib 3 mg/kg/d p.o.): NS
Serum PINP levels, change during the in-life phase ([1]; cabozantinib 3 mg/kg/d p.o.): ↑ *
Serum TRACP 5b activity, change during the in-life phase ([1]; cabozantinib 3 mg/kg/d p.o.): ↓ *
OVX-induced gain in body weight ([1]; OVX rats, Compound 1 oral dose of 1 mg/kg/d, two weeks): partially prevented
OVX-induced increase in serum PINP levels [1, 3]: enhanced
OVX-induced reduction in serum TRACP 5b activity [1, 3]: enhanced
OVX-induced increase in serum CTX levels [1, 4]: did not affect
OVX-induced increase in serum OC levels [1, 4]: did not affect
OVX-induced reduction in relative uterine weight [1, 4]: did not affect
ALP values / osteoblast differentiation ([2]; 3.0 μM): decreased; also recorded: inhibitory effects
ALP values / osteoblast differentiation ([2]; 0.012, 0.037, 0.11, 0.33 and 1.0 μM): increased; also recorded: dose-dependent stimulation
activity at 0.004 µM ([2]; Mus musculus, Osteoblast, 192 h, 0.004 μM Compound 1, read-out: ALP Activity at Day 8, Percent Activity (%) Compared to BL): 109%
activity at 0.012 µM ([2]; Mus musculus, Osteoblast, 192 h, 0.012 μM Compound 1, read-out: ALP Activity at Day 8, Percent Activity (%) Compared to BL): 113%
activity at 0.037 µM ([2]; Mus musculus, Osteoblast, 192 h, 0.037 μM Compound 1, read-out: ALP Activity at Day 8, Percent Activity (%) Compared to BL): 134%
activity at 0.11 µM ([2]; Mus musculus, Osteoblast, 192 h, 0.11 μM Compound 1, read-out: ALP Activity at Day 8, Percent Activity (%) Compared to BL): 181%
activity at 0.33 µM ([2]; Mus musculus, Osteoblast, 192 h, 0.33 μM Compound 1, read-out: ALP Activity at Day 8, Percent Activity (%) Compared to BL): 166%
activity at 1 µM ([2]; Mus musculus, Osteoblast, 192 h, 1.0 μM Compound 1, read-out: ALP Activity at Day 8, Percent Activity (%) Compared to BL): 117%
activity at 3 µM ([2]; Mus musculus, Osteoblast, 192 h, 3.0 μM Compound 1, read-out: ALP Activity at Day 8, Percent Activity (%) Compared to BL): 57%
